Active and inactive are the calls of the source.
Legend:
[1] = target: Induced myeloid leukemia cell differentiation protein Mcl-1 (Homo sapiens, UniProt Q07820); assay type: functional
[2] = target: T1, Replicative DNA helicase DnaB (Mycobacterium tuberculosis, UniProt P9WMR3); assay: DnaB intein splicing inhibitors, dose response, biochemical, cell-free fluorescence (AID 449749); assay type: functional
T1 sequence (P9WMR3 whole entry): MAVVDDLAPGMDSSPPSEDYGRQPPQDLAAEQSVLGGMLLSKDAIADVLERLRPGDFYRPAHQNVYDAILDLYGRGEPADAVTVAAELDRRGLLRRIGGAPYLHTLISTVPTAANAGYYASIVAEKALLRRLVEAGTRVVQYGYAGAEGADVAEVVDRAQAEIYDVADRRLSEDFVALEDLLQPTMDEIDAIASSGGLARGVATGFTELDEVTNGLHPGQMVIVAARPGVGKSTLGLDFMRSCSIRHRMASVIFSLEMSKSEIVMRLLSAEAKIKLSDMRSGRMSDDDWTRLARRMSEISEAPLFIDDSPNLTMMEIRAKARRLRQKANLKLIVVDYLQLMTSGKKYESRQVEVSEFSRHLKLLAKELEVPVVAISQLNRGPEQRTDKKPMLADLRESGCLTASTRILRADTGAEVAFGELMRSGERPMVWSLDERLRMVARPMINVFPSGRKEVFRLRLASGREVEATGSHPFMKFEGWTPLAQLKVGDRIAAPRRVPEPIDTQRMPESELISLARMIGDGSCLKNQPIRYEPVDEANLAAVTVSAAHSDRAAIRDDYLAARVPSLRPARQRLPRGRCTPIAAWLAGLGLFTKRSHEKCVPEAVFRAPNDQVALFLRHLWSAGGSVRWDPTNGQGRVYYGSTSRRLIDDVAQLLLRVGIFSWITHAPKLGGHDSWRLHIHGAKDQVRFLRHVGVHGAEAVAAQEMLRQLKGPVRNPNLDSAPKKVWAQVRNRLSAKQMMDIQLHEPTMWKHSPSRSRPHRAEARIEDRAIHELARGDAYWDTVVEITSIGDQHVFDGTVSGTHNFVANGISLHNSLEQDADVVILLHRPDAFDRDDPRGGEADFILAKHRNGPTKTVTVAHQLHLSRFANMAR

Protein RecA = target: T2, Protein RecA (Mycobacterium tuberculosis, UniProt P9WHJ3); assay: Fluorescence Cell-Free Homogeneous Dose Retest to Identify Inhibitors of RecA-Intein Splicing Activity. [Related pubchem assays (depositor defined):AID2097, AID2223, AID489010, AID492950]; assay type: functional
T2 sequence (P9WHJ3 whole entry): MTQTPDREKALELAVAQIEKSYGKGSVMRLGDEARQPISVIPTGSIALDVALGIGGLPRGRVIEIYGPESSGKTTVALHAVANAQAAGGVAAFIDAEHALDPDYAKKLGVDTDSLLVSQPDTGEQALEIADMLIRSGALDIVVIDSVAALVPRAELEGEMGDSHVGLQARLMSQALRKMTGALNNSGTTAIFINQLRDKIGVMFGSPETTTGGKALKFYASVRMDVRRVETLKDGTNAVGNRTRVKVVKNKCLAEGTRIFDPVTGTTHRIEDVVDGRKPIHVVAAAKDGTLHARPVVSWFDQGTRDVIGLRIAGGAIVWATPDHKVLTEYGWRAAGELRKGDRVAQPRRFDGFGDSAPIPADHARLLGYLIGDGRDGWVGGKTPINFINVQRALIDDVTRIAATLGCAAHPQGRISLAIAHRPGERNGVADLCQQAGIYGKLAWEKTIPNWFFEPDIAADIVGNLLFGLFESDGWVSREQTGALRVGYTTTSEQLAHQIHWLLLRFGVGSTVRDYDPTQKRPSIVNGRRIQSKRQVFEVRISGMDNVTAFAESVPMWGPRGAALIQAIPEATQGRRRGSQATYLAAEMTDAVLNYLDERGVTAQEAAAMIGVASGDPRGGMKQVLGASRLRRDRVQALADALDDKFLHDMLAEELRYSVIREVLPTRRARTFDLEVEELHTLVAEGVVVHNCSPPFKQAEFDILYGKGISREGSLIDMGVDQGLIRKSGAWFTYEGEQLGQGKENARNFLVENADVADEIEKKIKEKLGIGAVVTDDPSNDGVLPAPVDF

Leucine aminopeptidase = target: T3, Leucine aminopeptidase (Plasmodium falciparum 3D7, UniProt Q8IL11); assay: P. falciparum M17LAP inhibitors, primary screen, biochemical, fluorogenic H-Leu-NHMec substrate, 1536-well (AID 1619); assay type: functional
T3 sequence (Q8IL11 whole entry): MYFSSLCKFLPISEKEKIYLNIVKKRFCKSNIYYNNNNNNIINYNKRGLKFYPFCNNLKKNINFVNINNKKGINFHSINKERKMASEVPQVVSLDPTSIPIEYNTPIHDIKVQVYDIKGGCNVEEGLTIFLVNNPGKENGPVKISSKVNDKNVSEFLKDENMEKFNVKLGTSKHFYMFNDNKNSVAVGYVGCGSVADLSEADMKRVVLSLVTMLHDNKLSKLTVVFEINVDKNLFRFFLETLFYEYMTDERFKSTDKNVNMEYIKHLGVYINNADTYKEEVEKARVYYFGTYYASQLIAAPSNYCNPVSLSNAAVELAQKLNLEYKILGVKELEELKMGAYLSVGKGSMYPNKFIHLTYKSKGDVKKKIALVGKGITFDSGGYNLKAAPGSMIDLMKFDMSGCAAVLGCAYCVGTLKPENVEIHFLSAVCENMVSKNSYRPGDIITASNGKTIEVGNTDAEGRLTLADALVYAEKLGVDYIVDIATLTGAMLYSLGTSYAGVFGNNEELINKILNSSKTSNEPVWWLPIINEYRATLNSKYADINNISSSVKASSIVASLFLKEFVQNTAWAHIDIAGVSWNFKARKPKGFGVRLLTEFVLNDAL

Aminopeptidase N = target: T4, Aminopeptidase N (Plasmodium falciparum FcB1/Columbia, UniProt O96935); assay: P. falciparum M1AAP inhibitors, biochemical, fluorogenic H-Leu-NHMec substrate, 1536-well (AID 1445); set-up: species or system Plasmodium falciparum 3D7, 3D7
T4 sequence (O96935 whole entry): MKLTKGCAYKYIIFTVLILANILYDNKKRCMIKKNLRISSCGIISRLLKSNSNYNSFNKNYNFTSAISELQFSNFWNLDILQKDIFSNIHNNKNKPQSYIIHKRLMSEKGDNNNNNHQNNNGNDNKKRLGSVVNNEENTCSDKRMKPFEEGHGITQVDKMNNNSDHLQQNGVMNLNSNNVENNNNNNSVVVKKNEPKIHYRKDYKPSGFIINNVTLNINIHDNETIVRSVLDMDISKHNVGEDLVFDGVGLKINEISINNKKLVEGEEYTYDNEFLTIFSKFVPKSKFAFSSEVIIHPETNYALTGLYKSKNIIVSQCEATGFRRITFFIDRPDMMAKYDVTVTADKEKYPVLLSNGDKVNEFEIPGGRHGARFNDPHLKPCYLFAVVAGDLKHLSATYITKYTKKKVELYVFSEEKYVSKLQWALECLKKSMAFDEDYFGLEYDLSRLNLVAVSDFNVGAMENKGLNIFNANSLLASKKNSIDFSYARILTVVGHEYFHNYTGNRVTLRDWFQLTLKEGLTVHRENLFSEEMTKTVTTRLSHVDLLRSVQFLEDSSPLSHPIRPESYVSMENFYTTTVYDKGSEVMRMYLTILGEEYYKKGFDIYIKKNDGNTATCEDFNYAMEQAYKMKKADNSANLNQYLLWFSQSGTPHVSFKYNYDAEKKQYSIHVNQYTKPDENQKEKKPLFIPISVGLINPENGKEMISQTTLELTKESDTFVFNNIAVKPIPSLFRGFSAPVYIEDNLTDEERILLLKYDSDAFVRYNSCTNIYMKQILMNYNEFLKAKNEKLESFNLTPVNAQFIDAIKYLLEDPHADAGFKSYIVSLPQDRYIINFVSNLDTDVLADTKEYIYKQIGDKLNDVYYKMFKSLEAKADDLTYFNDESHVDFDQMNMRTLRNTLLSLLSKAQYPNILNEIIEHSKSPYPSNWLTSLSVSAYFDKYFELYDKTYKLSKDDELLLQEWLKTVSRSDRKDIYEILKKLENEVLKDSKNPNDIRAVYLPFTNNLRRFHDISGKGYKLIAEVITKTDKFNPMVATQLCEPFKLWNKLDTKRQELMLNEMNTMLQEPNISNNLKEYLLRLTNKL

[3] = microbe, parasite or virus in culture; assay type: functional; conditions: Mycobacterium tuberculosis
Streptokinase A = target: T5, Streptokinase A (Streptococcus pyogenes serotype M1, UniProt P10520); assay: S. pyogenes streptokinase expression inhibitors, potency, dose response, plasminogen activation absorbance, OD405 (AID 1914); assay type: functional, Streptococcus pyogenes M1 GAS;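 also: secreted streptokinase activity via plasminogen activation per viability signal from cell pellet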
T5 sequence (P10520 whole entry): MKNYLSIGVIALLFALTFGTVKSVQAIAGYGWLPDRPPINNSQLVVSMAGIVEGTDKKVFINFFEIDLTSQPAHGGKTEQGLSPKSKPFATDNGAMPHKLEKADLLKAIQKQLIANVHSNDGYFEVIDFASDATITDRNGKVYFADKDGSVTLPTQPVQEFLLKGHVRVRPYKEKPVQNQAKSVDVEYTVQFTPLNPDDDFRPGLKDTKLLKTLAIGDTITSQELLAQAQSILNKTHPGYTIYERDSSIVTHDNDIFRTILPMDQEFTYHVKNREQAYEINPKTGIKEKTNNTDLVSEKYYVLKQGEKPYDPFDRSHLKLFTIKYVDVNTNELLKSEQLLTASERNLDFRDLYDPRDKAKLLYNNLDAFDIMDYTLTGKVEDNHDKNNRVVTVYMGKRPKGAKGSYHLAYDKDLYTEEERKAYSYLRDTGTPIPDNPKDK

[4] = HepG2 cell cytotoxicity, dose response, cytotoxicity control for Shn3 inhibitor project, CellTiter-Glo, cherry-picked (AID 624134); assay type: functional, cell-based
[5] = test system: Streptococcus sp. 'group A'; assay: growth inhibition of control SK(-) GAS strain, dose response, counter-screen for streptokinase expression inhibitor project, luminescence, kanamycin, BacTiterGlo, confirmation (AID 1900); assay type: functional, organism-based
[6] = Luminescence Cell-Based Dose Response HTS to Identify Inhibitors of 5'UTR Stem-Loop Driven Prion Protein mRNA Translation in H4 Neuroglioblastoma Cells. [Related pubchem assays: 1827 (Project Summary), 1813 (Primary HTS)]; assay type: functional
[7] = control 3'UTR Renilla luciferase suppression, dose response, counter-screen for Shn3 inhibitor project, cell-based, Clone20-Shn3RL, cherry-picked (AID 624133); assay type: functional
[8] = inhibitors of SNCA 5'UTR-driven reporter translation, confirmation, H4 neuroglioma cells, luminescence (AID 1988); assay type: functional, cell-based
[9] = inhibitors of firefly luciferase expression or activity, dose response, H4 neuroglioma cells, luminescence (AID 1990); assay type: functional, cell-based
[10] = Shn3 3'UTR reporter inhibitors, dose response, cell-based, Clone20 osteoblasts, firefly luciferase, cherry-picked (AID 624132); assay type: functional;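 also: firefly luciferase luminescence from reporter carrying the Shn3 3'UTR in osteoblasts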
Paired box protein Pax-8 = Paired box protein Pax-8 (Homo sapiens, UniProt Q06710); assay: inhibitors of PAX8-driven TPO luciferase reporter, dose response, RMG-I cells, cherry-pick (AID 687027); assay type: functional, cell-based;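 also: luciferase reporter driven by Pax8 target thyroperoxidase promoter measured by SteadyGlo luminescence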
INS1 = assay: beta cell apoptosis inhibitors, cytokine rescue, dose response, luminescence, retest (AID 449756); assay type: functional, cell-based; conditions: Rattus norvegicus;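 also: cell death triggered by IL-1 beta plus TNF-alpha plus IFN-gamma mixture; protective hits raise ATP signal compared with cytokine alone wells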
Streptococcus = assay: Group A Streptococcus viability loss, dose response, counter-screen for streptokinase expression inhibitor project, luminescence, BacTiterGlo (AID 1915); assay type: functional, organism-based;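 also: potency for reduction of bacterial viability or growth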
[11] = growth suppression of PTEN-null colon cells, dose response, cell-based, HCT116 PTEN knockout (AID 1047); assay type: functional;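 also: HCT116 colon tumor cells with PTEN knocked out; cells exposed to compound for 60 hours before readout; potency for loss of cell viability measured by luminescence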
[12] = growth suppression of beta-catenin-knockout colon cells, dose response, cell-based, HCT116, human colon tumor (AID 1045); assay type: functional;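 also: HCT116 colon tumor cells with beta catenin knocked out; cells exposed to compound for 60 hours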

Sequence of Induced myeloid leukemia cell differentiation protein Mcl-1 (Q07820 whole entry): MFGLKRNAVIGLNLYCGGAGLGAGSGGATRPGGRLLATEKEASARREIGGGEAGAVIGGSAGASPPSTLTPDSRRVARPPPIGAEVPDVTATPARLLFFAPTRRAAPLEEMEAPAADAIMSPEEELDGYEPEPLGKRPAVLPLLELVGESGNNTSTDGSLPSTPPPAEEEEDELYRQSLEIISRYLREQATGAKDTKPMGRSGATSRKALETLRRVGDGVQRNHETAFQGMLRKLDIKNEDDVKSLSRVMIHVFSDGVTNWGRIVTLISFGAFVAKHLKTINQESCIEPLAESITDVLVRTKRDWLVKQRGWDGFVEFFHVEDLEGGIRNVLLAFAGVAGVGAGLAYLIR
Sequence of Paired box protein Pax-8 (Q06710 whole entry): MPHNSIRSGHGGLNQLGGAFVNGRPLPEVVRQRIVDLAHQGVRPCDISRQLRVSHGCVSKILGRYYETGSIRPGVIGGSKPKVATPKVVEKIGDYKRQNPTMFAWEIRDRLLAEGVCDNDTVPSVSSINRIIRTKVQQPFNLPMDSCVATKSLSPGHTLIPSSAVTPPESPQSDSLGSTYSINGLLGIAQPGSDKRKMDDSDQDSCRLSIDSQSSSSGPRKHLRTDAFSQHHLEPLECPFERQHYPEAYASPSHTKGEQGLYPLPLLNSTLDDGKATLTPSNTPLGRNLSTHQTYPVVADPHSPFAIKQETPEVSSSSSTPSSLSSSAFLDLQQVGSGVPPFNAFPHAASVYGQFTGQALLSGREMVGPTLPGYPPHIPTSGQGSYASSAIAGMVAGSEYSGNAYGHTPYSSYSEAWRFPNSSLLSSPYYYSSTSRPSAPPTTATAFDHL

With COc1ccc(CCNC(=O)COC(=O)Cc2cccc3ccccc23)cc1 the IC50 [1] was 26.3 µM (not active).
With CCCCc1ccc(NC(=O)CSCc2cc(=O)[nH][nH]2)cc1 the AC50 [2] was 3.57 µM (active), the EC50 (Protein RecA) was 1.82 µM (active) and the IC50 (Leucine aminopeptidase) was 12.4 µM (active).
In the case of Nc1c(C(=O)O)cnc2c(-c3ccc(Cl)cc3)cnn12, the IC50 (Aminopeptidase N) is reported as 42.4 µM (active) and the CC50 [3] is reported as 24.6 µM (active).
In the case of O=C(Nc1ccc([N+](=O)[O-])cc1)Nc1nc(-c2ccc(Cl)s2)cs1, the EC50 (Streptokinase A) is reported as 44.8 µM (inconclusive), the AC50 [4] is reported as 4.82 µM (active) and the EC50 [5] is reported as 6.16 µM (active). For the same compound, the IC50 [1] was 5.32 µM (active), the EC50 [6] was 8.31 µM (active) and the AC50 [7] was 3.04 µM (active). The EC50 [8] was 8.39 µM (active), the EC50 [9] was 8.65 µM (active) and the AC50 [10] was 3.19 µM (active). For the same compound, the AC50 (Paired box protein Pax-8) was 2.42 µM (active), the AC50 (INS1) was 1.54 µM (active) and the EC50 (Streptococcus) was 81.8 µM (active). For the same compound, the EC50 [11] was 800 nM (active) and the EC50 [12] was 991 nM (active).
For CCN(CC)S(=O)(=O)N1CCC(C(=O)NCC2COc3ccccc3O2)CC1 (centres undefined), the IC50 (Leucine aminopeptidase) was 11.3 µM (active).
For Cc1ccc(NC(=O)CSCc2nc(O)c3nnn(Cc4ccc(F)cc4)c3n2)c(C)c1, the IC50 (Leucine aminopeptidase) was 2.06 µM (active).
With COC(=O)c1ccc(Cl)c(NS(=O)(=O)c2ccc3c(c2)OCCO3)c1 the IC50 (Aminopeptidase N) was 29.7 µM (active).
For CC1=C(C)C(=O)C(CCCCC#CCCCC#CCO)=C(C)C1=O [DOCEBENONE], the IC50 (Leucine aminopeptidase) was 53.4 µM (active).
